# In publication PMC8745345, “Hydroxy Pentacyclic Triterpene Acid, Kaempferol, Inhibits the Human 5-Hydroxytryptamine Type 3A Receptor Activity” (International Journal of Molecular Sciences, 2022):
# Numbering of substitutions follows the chain as printed.
# Experiments:
# [1] = molecular target: T1, human 5-HT3A receptor R65A mutant (Homo sapiens, UniProt P46098, R87A); assay: Two-electrode voltage clamp, I5-HT inhibition, R65A mutant; format: cell-based; conditions: −80 mV
# T1 sequence (P46098 24-478 R87A): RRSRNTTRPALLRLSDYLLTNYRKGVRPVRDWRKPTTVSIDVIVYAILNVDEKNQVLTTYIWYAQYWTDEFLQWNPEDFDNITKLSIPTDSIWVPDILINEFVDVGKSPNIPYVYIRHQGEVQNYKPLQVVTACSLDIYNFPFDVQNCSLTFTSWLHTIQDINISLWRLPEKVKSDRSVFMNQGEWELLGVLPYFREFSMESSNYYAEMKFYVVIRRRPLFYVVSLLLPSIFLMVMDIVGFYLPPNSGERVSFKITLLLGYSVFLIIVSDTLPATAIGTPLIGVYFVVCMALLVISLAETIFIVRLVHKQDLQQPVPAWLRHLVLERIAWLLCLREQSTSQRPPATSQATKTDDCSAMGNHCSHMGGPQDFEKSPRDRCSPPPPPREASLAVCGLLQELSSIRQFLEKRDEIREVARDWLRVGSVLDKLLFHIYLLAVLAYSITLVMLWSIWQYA
# Experimental: (§1) Human 5-HT3A receptor cDNA was linearized using restriction enzyme XhoI. In vitro transcription was performed using an mMESSAGE mMACHINE T7 Transcription Kit (Thermo Fisher Scientific, Waltham, MA, USA). The final mRNA product was dissolved in 1X Diethyl Pyrocarbonate (RNase-free water) at a final concentration of 1 μg/μL and kept in a deep-freezer at −80 °C until used.
# (§2) Xenopus oocytes were used in this study as cells for expression of human 5-HT3A receptor. All female frogs used in this experiment were obtained from the Korean Xenopus Resource Center for Research (KXRCR000001). […] Xenopus oocytes were extracted during ice incubation state and isolated as single oocytes using collagenase II (2 mg/mL) in OR2 buffer (82.5 mM NaCl, 2 mM KCl, 1 mM MgCl2, 5 mM HEPES, pH 7.4). Isolated oocytes were incubated with ND96 incubation buffer (96 mM NaCl, 2 mM KCl, 1 mM MgCl2, 1.8 mM CaCl2, 5 mM HEPES, 2.5 mM sodium pyruvate, and 50 mg/mL gentamycin, pH 7.4) at 18 °C until the experiment was performed. Human 5-HT3A receptor mRNA was injected into oocytes using a nanoinjector (Drummond Scientific, Broomall, PA, USA) with a mineral-filled 10 μL microdispenser (VWR, Piscataway, NJ, USA).
# (§3) To confirm the KAE activity on the human 5-HT3A receptor, a two-electrode voltage clamp (OC-725C; Warner Instruments, Hamden, CT, USA) with a Digitata 1550A was used. For the experiment, induced-inward current was converted to digital data with pClamp 10 software (Axon Instruments, Union City, CA, USA). All experiments were performed at room temperature using an oocyte clamp equipped with Digidata. The membrane holding potential was −80 mV.
# (§4) The voltage relationship experiment for confirming the relationship between induce-inward current and voltage, the voltage was varied from −80 mV to +60 mV using a ramp protocol. […] All recording data were analyzed using Clampfit 9.0 (Molecular Devices, San Jose, CA, USA). […]
# (§5) All presented experiments were performed at least three times for scientific verification. […] Induced-inward current data were analyzed with SigmaPlot 10.0 software (Systat Software, Inc., San Jose, CA, USA). […]
# [2] = molecular target: T2, human 5-HT3A receptor D177A mutant (Homo sapiens, UniProt P46098, D199A); assay: Two-electrode voltage clamp, I5-HT inhibition, D177A mutant; format: cell-based; conditions: −80 mV
# T2 sequence (P46098 24-478 D199A): T1 sequence (P46098 24-478 R87A) with A64R, D176A
# Experimental: as §1, §2, §3, §4, §5
# [3] = molecular target: T3, human 5-HT3A receptor F199A mutant (Homo sapiens, UniProt P46098, F221A); assay: Two-electrode voltage clamp, I5-HT inhibition, F199A mutant; format: cell-based; conditions: −80 mV
# T3 sequence (P46098 24-478 F221A): T1 sequence (P46098 24-478 R87A) with A64R, F198A
# Experimental: as §1
# Xenopus oocytes were used in this study as cells for expression of human 5-HT3A receptor. All female frogs used in this experiment were obtained from the Korean Xenopus Resource Center for Research (KXRCR000001). […] Isolated oocytes were incubated with ND96 incubation buffer (96 mM NaCl, 2 mM KCl, 1 mM MgCl2, 1.8 mM CaCl2, 5 mM HEPES, 2.5 mM sodium pyruvate, and 50 mg/mL gentamycin, pH 7.4) at 18 °C until the experiment was performed. Human 5-HT3A receptor mRNA was injected into oocytes using a nanoinjector (Drummond Scientific, Broomall, PA, USA) with a mineral-filled 10 μL microdispenser (VWR, Piscataway, NJ, USA).
# For the experiment, induced-inward current was converted to digital data with pClamp 10 software (Axon Instruments, Union City, CA, USA). All experiments were performed at room temperature using an oocyte clamp equipped with Digidata. The membrane holding potential was −80 mV.
# The voltage relationship experiment for confirming the relationship between induce-inward current and voltage, the voltage was varied from −80 mV to +60 mV using a ramp protocol. Each microelectrode was filled with 3 M KCl having a resistance of 0.2 MΩ. […] The rate of application of the reagent was 2 mL per minute. All recording data were analyzed using Clampfit 9.0 (Molecular Devices, San Jose, CA, USA).
# Point mutation was performed using Pfu DNA polymerase (Quikchange II Site-Directed Mutagenesis Kit). Chimeric primer design for PCR was performed under appropriate primer design guidelines. […]
# as §5
# [4] = parameters: method as in PMID 21428901; conditions: lipophilic, penetrates the lipid bilayer; cited from earlier work
structure (smiles),measurement,setting,value
"O=c1c(O)c(-c2ccc(O)cc2)oc2cc(O)cc(O)c12 [KAE, kaempferol]",IC50,[1],44.7 ± 9.1 µM
same,Vmax,[1],82.6 ± 7.4%
same,n (Hill coefficient),[1],1.8 ± 0.7
same,n (Hill coefficient),[2],1.3 ± 0.2
same,IC50,[2]; Table 1,13.9 ± 4.2 µM
same,Vmax,[2]; Table 1,23.3 ± 13.4%
same,n (Hill coefficient),[3],1.4 ± 0.4
same,IC50,[3]; Table 1,21.5 ± 5.7 µM
same,Vmax,[3]; Table 1,53.3 ± 10.4%
same,ability to cross the blood-brain barrier (BBB),[4],can cross the blood-brain barrier (BBB)
